Holding throughout (type): cell-based
Data set [1] has as its system HeLa cells. Nature of the data set: Normalizing or counting cell number. The settings on record: HeLa cells seeded at several densities, fixed, permeabilized, stained one hour at room temperature; LI-COR Odyssey. Here is the method:
HeLa cells were counted/normalized using Dye No. 1. HeLa cells were seeded in 96-well—lates at several densities per well (as indicated on the x-axis of FIG. 7). After 24 hours, cells were fixed, permeabilized, and stained with the indicated dyes for one hour at room temperature according to the protocol provided by the supplier of the DRAQ5/Sapphire700 system. Fluorescence was quantitated using a LI-COR Odyssey system. HeLa cells seeded at 25,000 cells were confluent at the time of the assay.

In data set [2] the test system is HeLa cells. Nature of the data set: Toxicity approximately 18 hours after staining (bright-field microscopy). The settings on record: live HeLa cells, 5 μM DRAQ5 or 20 μM Dye No. 1, 5 minutes at 37° C., then approximately 18 hours in fresh medium. As for the experimental part: Dark spots are indicative of dead cells.
Live HeLa cells were treated with either 5 μM DRAQ5 or 20 μM Dye No. 1 in 1×PBS for 5 minutes at 37° C. The dye/PBS solution was removed and replaced with fresh Dulbecco/Vogt modified Eagle's minimal essential medium (DMEM) supplemented with bovine growth serum (BGS). The cells were incubated at 37° C. for approximately 18 hours, and observed under bright-field at 10× magnification (FIG. 2).

The subject of data set [3] is HeLa cells. The data set is described as follows: Staining live cells with Dye No. 1 (fluorescence microscopy). The settings on record: live adherent HeLa cells; 5 μM DRAQ5 or 10 μM Dye No. 1 in 1× PBS, 37° C., 5 minutes; CY5 filter. As for the experimental part: Live, adherent HeLa cells grown in 12-well plates were treated with either 5 μM DRAQ5 or 10 μM of Dye No. 1 in 1× phosphate buffered saline (PBS). Cells were incubated at 37° C. for 5 minutes. Fluorescence was observed using an epifluorescence microscope with the CY5 filter.

The subject of data set [4] is HeLa cells. Nature of the data set: Staining of live (unfixed) HeLa cultures; selective staining of dead cells. The settings on record: 1 uL of 500 uM dye stock in 100 uL medium, five minutes, room temperature. As for the experimental part: HeLa cells were seeded at a density of 2×10^4 cells in 100 uL culture medium per well in tissue culture treated, optical bottom, black 96-well plates. One day after seeding, 1 uL of 500 uM dye stock in DMSO was added directly to the culture medium (100 uL) and mixed by trituration. The cells were incubated at room temperature for five minutes. The culture medium containing dye was removed and replaced by 100 uL phosphate buffered saline. Cellular fluorescence was imaged using an the Cy5 filter set of an Olympus IX71 epifluorescence microscope and a Q-Imaging Retiga 2000R Fast 1394 mono camera (FIG. 5). […] Probes that can selectively detect dead cells are useful in cell viability assays, which are widely practiced in drug screening.

Data set [5] relates to HeLa cells. The data set is described as follows: Staining of fixed and permeabilized cells. The settings on record: HeLa fixed with 4% paraformaldehyde, 0.5% Triton X-100; 3 μM DRAQ7 or 10 μM dye, 5 minutes, room temperature. Here is the method: Adherent HeLa cells in 12-well plates were fixed with 4% paraformaldehyde for 15 minutes at room temperature. Cells were then permeabilized with 0.5% Triton X-100 for 10 minutes at room temperature. Three micromolar (3 μM, the manufacturer's recommended concentration) DRAQ7 or 10 μM Dye No. 7, 13, or 15 were added to the fixed and permeabilized cells in 1×PBS and incubated for 5 minutes at room temperature. The dye/PBS solution was removed and replaced with fresh 1×PBS. Fluorescence was observed using an epifluorescence microscope with the CY5 filter (FIG. 3).

For data set [6], the system named is rat skeletal muscle. Nature of the data set: Staining of tissue sections with Dye No. 7. The settings on record: acetone-fixed frozen sections of rat skeletal muscle; 10 uM, five minutes, room temperature. Here is the method:
Acetone-fixed frozen sections of rat skeletal muscle were purchased from Biochain Institute Inc. (Hayward, Calif.). Sections were rinsed in phosphate buffered saline and stained with 10 uM Dye No. 7 and 5 units/mL CF488A-phalloidin (Biotium Inc, Hayward, Calif.) for five minutes at room temperature. Sections were rinsed twice in phosphate buffered saline and mounted with EverBrite mounting medium (Biotium, Inc, Hayward, Calif.). Tissue fluorescence was imaged using the FITC and Cy5 filter sets of an Olympus IX71 epifluorescence microscope and a Q-Imaging Retiga 2000R Fast 1394 mono camera (FIG. 4).

Structures are written as SMILES. Entries after “also recorded” stand apart in the source; their conditions may differ.

In the case of `CN(C)CCNc1ccc(O)c2c1C(=O)c1c(O)ccc(NCCNC(=O)C3CCCN3)c1C2=O` (centres unmarked) [Dye No. 1], the “fluorescence versus number of cells stained” value in data set [1] was “linear with the number of cells stained”. In data set [2], the “toxicity (cell death) after staining” value is recorded as “caused fewer cell deaths than Draq5 even at a much higher concentration; also recorded: much less toxic than Draq5”. The “nuclear staining of live cells” value in data set [3] is listed as “stained the nuclei of live cells with high specificity; also recorded: stained the nuclei of live cells specifically”. The “staining of live versus dead cells in live (unfixed) culture” value in data set [4] is reported as “stained the nuclei of all cells”.
As to `O=C1c2c(O)ccc(NCCNC3=NCCN3)c2C(=O)c2c(O)ccc(NCCNC3=NCCN3)c21` [Dye No. 13], the “nuclear staining specificity in fixed and permeabilized cells” value in data set [5] is on record as “much more specific in nuclear staining than Draq7”.
The same measure, in the same setting: for `CC(=N)NCCNc1ccc(O)c2c1C(=O)c1c(O)ccc(NCCNC(C)=N)c1C2=O` [Dye No. 15] the value was “much more specific in nuclear staining than Draq7; also recorded: stained cell nuclei specifically”.
Take `CN(C)CCNc1ccc(O)c2c1C(=O)c1c(O)ccc(NCCNC(=N)CCCCC(=N)NCCNc3ccc(O)c4c3C(=O)c3c(O)ccc(NCCN(C)C)c3C4=O)c1C2=O` [Dye No. 7]: the “nuclear staining specificity in tissue” value in data set [6] was “excellent nuclear specificity”. The “nuclear staining specificity in fixed and permeabilized cells” value in data set [5] is “much more specific in nuclear staining than Draq7; also recorded: stained cell nuclei specifically”. Moreover, the “staining of live versus dead cells in live (unfixed) culture” value in data set [4] was “selectively stained the nuclei of dead cells only”.
As to `CN(C)CCNc1ccc(O)c2c1C(=O)c1c(O)ccc(NCCN(C)C)c1C2=O` [Draq5, reference compound], in data set [2], the “toxicity (cell death) after staining” value is recorded as “more cell death than that with Dye No. 1”. In data set [3], the “nuclear staining of live cells” value was “stained the nuclei of live cells with high specificity; also recorded: stained the nuclei of live cells specifically”.

Source of the values: patent publication US9670363B2, “Substituted anthraquinone dyes for cellular stains and enzyme detection” (Biotium, Inc., priority 2011, dated 2017).
